Assay results published in patent US12358886B2, “Heterocyclic compounds for use in the treatment of cancer” (Artios Pharma Limited, priority 2019, dated 2025).

biological target: Polθ protein (amino acids 2-2590) (Homo sapiens, UniProt O75417); experiment: Polθ full length enzyme potency assay (PicoGreen); conditions: Polθ IC50 (nM), full length N-His, C-term FLAG tagged Polθ, PicoGreen fluorescence, 12 point concentration response
Sequence (O75417 2-2590): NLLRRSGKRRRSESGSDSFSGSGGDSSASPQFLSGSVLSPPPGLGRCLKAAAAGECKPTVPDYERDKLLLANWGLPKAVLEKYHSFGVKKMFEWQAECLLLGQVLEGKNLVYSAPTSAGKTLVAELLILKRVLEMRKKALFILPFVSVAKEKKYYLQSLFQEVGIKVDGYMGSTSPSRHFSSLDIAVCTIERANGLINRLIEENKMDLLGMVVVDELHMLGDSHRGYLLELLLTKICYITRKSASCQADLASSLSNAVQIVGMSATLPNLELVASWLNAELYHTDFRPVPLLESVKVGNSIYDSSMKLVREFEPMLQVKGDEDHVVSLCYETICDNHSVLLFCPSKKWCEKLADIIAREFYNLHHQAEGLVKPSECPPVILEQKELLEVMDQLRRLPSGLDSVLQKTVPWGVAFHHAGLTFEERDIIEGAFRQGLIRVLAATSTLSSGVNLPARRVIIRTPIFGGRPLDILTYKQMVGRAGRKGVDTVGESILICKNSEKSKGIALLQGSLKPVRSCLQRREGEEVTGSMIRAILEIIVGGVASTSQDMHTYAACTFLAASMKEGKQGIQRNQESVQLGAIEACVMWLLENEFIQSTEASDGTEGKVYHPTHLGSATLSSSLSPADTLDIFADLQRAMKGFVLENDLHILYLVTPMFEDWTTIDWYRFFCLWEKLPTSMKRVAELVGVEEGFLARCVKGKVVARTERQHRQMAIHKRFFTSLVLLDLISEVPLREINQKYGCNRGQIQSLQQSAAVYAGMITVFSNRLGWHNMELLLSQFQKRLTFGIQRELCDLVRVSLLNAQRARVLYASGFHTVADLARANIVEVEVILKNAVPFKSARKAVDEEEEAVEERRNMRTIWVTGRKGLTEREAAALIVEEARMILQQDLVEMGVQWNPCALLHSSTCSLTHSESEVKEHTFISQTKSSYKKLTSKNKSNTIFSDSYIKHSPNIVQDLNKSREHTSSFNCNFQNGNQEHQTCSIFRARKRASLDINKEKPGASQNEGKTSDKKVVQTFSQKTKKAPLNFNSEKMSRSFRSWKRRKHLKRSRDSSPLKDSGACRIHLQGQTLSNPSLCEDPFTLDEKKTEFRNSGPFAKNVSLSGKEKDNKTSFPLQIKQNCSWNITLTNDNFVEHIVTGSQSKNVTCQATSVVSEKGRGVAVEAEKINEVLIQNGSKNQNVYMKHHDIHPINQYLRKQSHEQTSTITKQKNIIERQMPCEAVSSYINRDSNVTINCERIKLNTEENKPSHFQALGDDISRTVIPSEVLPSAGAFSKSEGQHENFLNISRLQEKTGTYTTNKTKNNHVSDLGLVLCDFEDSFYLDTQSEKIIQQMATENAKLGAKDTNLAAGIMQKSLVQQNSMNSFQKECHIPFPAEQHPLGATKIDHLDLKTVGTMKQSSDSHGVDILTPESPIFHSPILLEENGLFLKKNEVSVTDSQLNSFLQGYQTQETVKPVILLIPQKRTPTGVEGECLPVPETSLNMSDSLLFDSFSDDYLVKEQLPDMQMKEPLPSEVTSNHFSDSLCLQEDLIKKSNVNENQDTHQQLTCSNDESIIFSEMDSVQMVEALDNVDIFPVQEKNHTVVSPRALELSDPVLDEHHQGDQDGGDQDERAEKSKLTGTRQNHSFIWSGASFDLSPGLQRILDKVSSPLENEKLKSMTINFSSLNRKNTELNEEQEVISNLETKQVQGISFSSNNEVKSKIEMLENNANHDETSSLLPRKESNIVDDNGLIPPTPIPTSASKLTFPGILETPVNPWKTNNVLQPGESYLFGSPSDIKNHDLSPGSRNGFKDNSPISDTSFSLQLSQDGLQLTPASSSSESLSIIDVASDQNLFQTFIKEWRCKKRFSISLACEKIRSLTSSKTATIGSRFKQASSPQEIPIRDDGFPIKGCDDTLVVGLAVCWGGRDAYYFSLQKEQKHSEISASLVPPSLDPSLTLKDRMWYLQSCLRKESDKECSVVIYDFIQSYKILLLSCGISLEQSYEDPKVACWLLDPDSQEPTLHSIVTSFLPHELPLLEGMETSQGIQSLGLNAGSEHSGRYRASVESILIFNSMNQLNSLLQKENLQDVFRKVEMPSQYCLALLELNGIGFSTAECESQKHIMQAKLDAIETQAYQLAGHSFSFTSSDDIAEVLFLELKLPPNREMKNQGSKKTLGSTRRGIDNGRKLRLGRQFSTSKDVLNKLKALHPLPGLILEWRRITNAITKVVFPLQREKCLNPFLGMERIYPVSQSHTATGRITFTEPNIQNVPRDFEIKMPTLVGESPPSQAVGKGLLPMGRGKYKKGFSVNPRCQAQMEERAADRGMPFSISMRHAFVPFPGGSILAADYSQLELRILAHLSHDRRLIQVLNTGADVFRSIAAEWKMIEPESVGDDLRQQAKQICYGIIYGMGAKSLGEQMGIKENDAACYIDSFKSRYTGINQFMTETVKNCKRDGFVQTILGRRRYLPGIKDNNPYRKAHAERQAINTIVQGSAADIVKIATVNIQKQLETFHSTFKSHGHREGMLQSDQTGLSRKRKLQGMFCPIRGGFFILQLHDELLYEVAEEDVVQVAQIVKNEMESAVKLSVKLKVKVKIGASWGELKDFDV
Protocol: Polθ Full Length Enzyme Potency Assay
PicoGreen assay was used to measure the ability of compounds to inhibit the activity of Polθ in vitro. […] DMSO concentration was maintained at 1% by back filling with DMSO solution. […] This was dispensed into each well of the compound plate using a VIAFLO 16 channel manual pipette (Integra) and pre-incubated at rt for 30 min. 3 μL of 2× working solution of dNTPs (40 μM) (dATP, dCTP, dGTP, dTTP; Sigma D6500, D4635, D4010, T0251) diluted in assay buffer was then added and the reaction incubated for 60 min at rt. The reaction was stopped by addition of 10 mM EDTA, 25 mM Tris pH 7.5 and 1:200 dilution of PicoGreen dye (Invitrogen P7581).

Compared with `Cc1cc(C)c(C#N)c(N2C[C@@H](O)C[C@H]2C(=O)N(C)c2cccc(Cl)c2)n1` [Example 13, (2S,4S)-N-(3-Chlorophenyl)-1-(3-cyano-4,6-dimethylpyridin-2-yl)-4-hydroxy-N-methylpyrrolidine-2-carboxamide], `Cc1cc(C(F)(F)F)c(C#N)c(N2C[C@@H](O)C[C@H]2C(=O)N(C)c2ccc(F)c(C)c2)n1` [Example 6, (2S,4S)-1-(3-Cyano-6-methyl-4-(trifluoromethyl)pyridin-2-yl)-N-(4-fluoro-3-methylphenyl)-4-hydroxy-N-methylpyrrolidine-2-carboxamide] is 16-fold lower in IC50: 180 nM for the first, 11 nM for the second.

Compared with `Cc1cc(C(C)C(F)(F)F)cc(N2C(=O)OC[C@H]2C(=O)N(C)c2ccc(F)c(Cl)c2)n1` (stereo partly drawn) [Example 124, (4S)—N-(3-Chloro-4-fluorophenyl)-N-methyl-3-(6-methyl-4-(1,1,1-trifiuoropropan-2-yl)pyridin-2-yl)-2-oxooxazolidine-4-carboxamide], `Cc1cc(C(F)(F)F)cc(N2C(=O)OC[C@H]2C(=O)N(C)c2ccc(F)c(Br)c2)n1` [Example 93, (S)-N-(3-Bromo-4-fluorophenyl)-N-methyl-3-(6-methyl-4-(trifluoromethyl)pyridin-2-yl)-2-oxooxazolidine-4-carboxamide] is 19-fold lower in IC50: 304 nM for the first, 16 nM for the second. The second is the more potent here.

Compared with `Cc1cc(C(F)(F)F)cc(N2C(=O)CC[C@H]2C(=O)N(C)c2ccc(F)c(C)n2)n1` [Example 60, (S)—N-(5-Fluoro-6-methylpyridin-2-yl)-N-methyl-1-(6-methyl-4-(trifluoromethyl)pyridin-2-yl)-5-oxopyrrolidine-2-carboxamide], `Cc1cc(C(F)(F)F)cc(N2C(=O)NC[C@H]2C(=O)N(C)c2ccc3occ(C)c3n2)n1` [Example 236, (S)—N-Methyl-3-(6-methyl-4-(trifluoromethyl)pyridin-2-yl)-N-(3-methylfuro[3,2-b]pyridin-5-yl)-2-oxoimidazolidine-4-carboxamide] is 5.4-fold lower in IC50: 76 nM for the first, 14 nM for the second. The second is the more potent here.

`CCN(C(=O)[C@@H]1C[C@H](N2CCOCC2)CN1c1nc(C)cc(C)c1C#N)c1cccc(C)c1` [Example 42, (2S,4S)-1-(3-Cyano-4,6-dimethylpyridin-2-yl)-N-ethyl-4-morpholino-N-(m-tolyl)pyrrolidine-2-carboxamide] and `CCN(C(=O)[C@H]1C[C@@H](N(C)C)CN1c1nc(C)cc(C)c1C#N)c1cccc(C)c1` (stereo in doubt) [Example 39, (2R,4R)-1-(3-Cyano-4,6-dimethylpyridin-2-yl)-4-(dimethylamino)-N-ethyl-N-(m-tolyl)pyrrolidine-2-carboxamide] are within 1.5-fold of each other in IC50: 25 nM for the first, 27 nM for the second.

First: [2H]C([2H])([2H])N(C(=O)[C@@H]1[C@H](O)[C@H](O)C(=O)N1c1cc(C(F)(F)F)cc(C)n1)c1ccc(F)c(Cl)c1 [Example 163, (2S,3S,4S)—N-(3-Chloro-4-fluorophenyl)-3,4-dihydroxy-N-(methyl-d3)-1-(6-methyl-4-(trifluoromethyl)pyridin-2-yl)-5-oxopyrrolidine-2-carboxamide]
Second: Cc1cc(C(F)(F)F)cc(N2C(=O)N(CCO)C[C@H]2C(=O)N(C)c2ccc(F)c(Cl)c2)n1 [Example 193, (S)—N-(3-Chloro-4-fluorophenyl)-1-(2-hydroxyethyl)-N-methyl-3-(6-methyl-4-(trifluoromethyl)pyridin-2-yl)-2-oxoimidazolidine-4-carboxamide]
The IC50 of the first is 1.8-fold higher: 11 nM for the first, 6 nM for the second. The second is the more potent here.

`Cc1cc(C(F)(F)F)cc(N2C(=O)N(CC3(O)CNC3)C[C@H]2C(=O)N(C)c2ccc(F)c(Cl)c2)n1` [Example 225, (S)—N-(3-Chloro-4-fluorophenyl)-1-((3-hydroxyazetidin-3-yl)methyl)-N-methyl-3-(6-methyl-4-(trifluoromethyl)pyridin-2-yl)-2-oxoimidazolidine-4-carboxamide] and `Cc1cc(C(F)(F)F)cc(N2C(=O)N(CCC(O)CO)C[C@H]2C(=O)N(C)c2ccc(F)c(Cl)c2)n1` (stereo partly drawn) [Example 232, (4S)—N-(3-Chloro-4-fluorophenyl)-1-(3,4-dihydroxybutyl)-N-methyl-3-(6-methyl-4-(trifluoromethyl)pyridin-2-yl)-2-oxoimidazolidine-4-carboxamide] are within 1.5-fold of each other in IC50: 17 nM for the first, 15 nM for the second.

Compared with `Cc1cc(C(F)(F)F)cc(N2C(=O)N(CC3CN(C)C3)C[C@H]2C(=O)N(C)c2ccc(F)c(Cl)c2F)n1` [Example 189, (S)—N-(3-Chloro-2,4-difluorophenyl)-N-methyl-3-(6-methyl-4-(trifluoromethyl)pyridin-2-yl)-1-((1-methylazetidin-3-yl)methyl)-2-oxoimidazolidine-4-carboxamide], `Cc1cc(C(F)(F)F)cc(N2C(=O)N(CCN=S(C)(C)=O)C[C@H]2C(=O)N(C)c2ccc(F)c(Cl)c2)n1` [Example 228, (S)—N-(3-Chloro-4-fluorophenyl)-1-(2-((dimethyl(oxo)-16-sulfaneylidene)amino)ethyl)-N-methyl-3-(6-methyl-4-(trifluoromethyl)pyridin-2-yl)-2-oxoimidazolidine-4-carboxamide] is 1.9-fold higher in IC50: 32 nM for the first, 62 nM for the second.

`CCN(C(=O)[C@@H]1C[C@H](NC(C)=O)C(=O)N1c1cc(C(F)(F)F)cc(C)n1)c1ccc(F)c(Cl)c1` [Example 62, (2S,4S)-4-Acetamido-N-(3-chloro-4-fluorophenyl)-N-ethyl-1-(6-methyl-4-(trifluoromethyl)pyridin-2-yl)-5-oxopyrrolidine-2-carboxamide] and `CCN(C(=O)[C@@H]1C[C@H](NC2COC2)CN1c1cc(C(F)(F)F)cc(C)n1)c1ccc(F)c(F)c1` [Example 138, (2S,4S)-N-(3,4-Difluorophenyl)-N-ethyl-1-(6-methyl-4-(trifluoromethyl)pyridin-2-yl)-4-(oxetan-3-ylamino)pyrrolidine-2-carboxamide] are within 1.5-fold of each other in IC50: 208 nM for the first, 165 nM for the second.

Compared with `Cc1cc(C(F)(F)F)c(C#N)c(N2CCC[C@H]2C(=O)N(C)c2ccc3c(n2)N(C)CCO3)n1` [Example 245, (S)-1-(3-Cyano-6-methyl-4-(trifluoromethyl)pyridin-2-yl)-N-methyl-N-(4-methyl-3,4-dihydro-2H-pyrido[3,2-b][1,4]oxazin-6-yl)pyrrolidine-2-carboxamide], `Cc1cc(C(F)(F)F)cc(N2C(=O)OC[C@H]2C(=O)N(C)c2cccc(N)n2)n1` [Example 175, (S)—N-(6-Aminopyridin-2-yl)-N-methyl-3-(6-methyl-4-(trifluoromethyl)pyridin-2-yl)-2-oxooxazolidine-4-carboxamide] is 7-fold higher in IC50: 74 nM for the first, 519 nM for the second.

Compared with `Cc1cc(C(F)(F)F)cc(N2C(=O)[C@@H](O)[C@@H](O)[C@H]2C(=O)N(C)c2ccc3ccn(C)c3n2)n1` [Example 167, (2S,3S,4S)-3,4-Dihydroxy-N-methyl-N-(1-methyl-1H-pyrrolo[2,3-b]pyridin-6-yl)-1-(6-methyl-4-(trifluoromethyl)pyridin-2-yl)-5-oxopyrrolidine-2-carboxamide], `C=Cc1ccc(N(C)C(=O)[C@@H]2COC(=O)N2c2cc(C(F)(F)F)cc(C)n2)c(F)c1` [Example 111, (S)—N-(2-Fluoro-4-vinylphenyl)-N-methyl-3-(6-methyl-4-(trifluoromethyl)pyridin-2-yl)-2-oxooxazolidine-4-carboxamide] is 3.1-fold lower in IC50: 56 nM for the first, 18 nM for the second.

same assay, conditions: read-out: Polθ IC50; full length N-His, C-term FLAG tagged Polθ, PicoGreen fluorescence, 12 point concentration response

`CCN(C(=O)[C@@H]1C[C@H](O)C(=O)N1c1cc(C(F)(F)F)cc(C)n1)c1ccc(F)c(Cl)c1` [Example 75, (2S,4S)—N-(3-Chloro-4-fluorophenyl)-N-ethyl-4-hydroxy-1-(6-methyl-4-(trifluoromethyl)pyridin-2-yl)-5-oxopyrrolidine-2-carboxamide] gave an IC50 of 95 nM.
